Results as given in patent publication US10301280B2 (Plexxikon Inc., priority 2012, dated 2019).

Experiments:
c-kit mutant D816V = c-kit mutant D816V (Homo sapiens (Human), UniProt P10721, D816V/DEL694-753); assay: c-Kit mutant D816V biochemical assay (AlphaScreen); details: c-kit D816V biochemical inhibitory activity
Summary of the method: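 His-tagged c-Kit D816V kinase domain (551-934, Δ694-753, E. coli) phosphorylating 30 nM biotin-(E4Y)10 at 10 μM ATP in HEPES pH 7.2 with Mg/Mn, 5% DMSO, 30 min at room temperature. PY20-acceptor/streptavidin-donor AlphaScreen detection after EDTA stop. IC50 from 8-point 1:3 titration.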

[1] = system: BaF3-FL KIT D816V or BaF3-FL KIT V560G/D816V cell line; assay: Cell-based assays of c-Kit mutant kinase activity (cell growth, ATPlite); details: at least one of the c-kit cell assays of Example 26
Summary of the method: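 BaF3 cells dependent on full-length human KIT (D816V or V560G/D816V) seeded at 1×10^4 cells/well in RPMI with 10% FBS. Eight-point 1:3 dilutions from 10 μM top final (0.2% DMSO), 3 days at 37° C., 5% CO2. ATPlite luminescence gave IC50.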

c-kit mutant D816V, sequence (P10721 other isoform, or with tags, fused parts or gaps D816V/del 694-753): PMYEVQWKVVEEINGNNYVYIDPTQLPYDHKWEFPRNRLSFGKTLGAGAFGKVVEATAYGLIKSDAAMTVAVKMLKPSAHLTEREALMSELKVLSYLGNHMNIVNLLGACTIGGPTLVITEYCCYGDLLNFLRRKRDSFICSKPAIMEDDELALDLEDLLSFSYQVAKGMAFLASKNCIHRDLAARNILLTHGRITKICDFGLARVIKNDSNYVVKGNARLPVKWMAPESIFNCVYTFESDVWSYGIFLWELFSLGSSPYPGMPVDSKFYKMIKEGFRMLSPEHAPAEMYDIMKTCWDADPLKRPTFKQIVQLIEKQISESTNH

| Structure (SMILES) | IC50 (c-kit mutant D816V) | IC50 [1] |
| --- | --- | --- |
| O=C(Nc1cnc2[nH]c(-c3ccccc3)cc2c1)c1ncccc1F [P-2012, 3-fluoro-N-(2-phenyl-1H-pyrrolo[2,3-b]pyridin-5-yl)pyridine-2-carboxamide] | 1 to 10 µM | < 10 µM |
| Cc1noc(C)c1C(=O)Nc1cnc2[nH]c(-c3ccccc3)cc2c1 [P-2013, 3,5-dimethyl-N-(2-phenyl-1H-pyrrolo[2,3-b]pyridin-5-yl)isoxazole-4-carboxamide] | 10 to 200 µM | < 10 µM |
| O=C(Nc1cnc2[nH]c(-c3ccccc3)cc2c1)c1cn[nH]n1 [P-2015, N-(2-phenyl-1H-pyrrolo[2,3-b]pyridin-5-yl)-2H-triazole-4-carboxamide] | 1 to 10 µM | < 10 µM |
| Cc1cccnc1C(=O)Nc1cnc2[nH]c(-c3ccccc3)cc2c1 [P-2016, 3-methyl-N-(2-phenyl-1H-pyrrolo[2,3-b]pyridin-5-yl)pyridine-2-carboxamide] | 1 to 10 µM | < 10 µM |
| Cc1cc(C(=O)Nc2cnc3[nH]c(-c4ccc(F)cc4)cc3c2)[nH]n1 [P-2019, N-[2-(4-fluorophenyl)-1H-pyrrolo[2,3-b]pyridin-5-yl]-3-methyl-1H-pyrazole-5-carboxamide] | 0.0001 to 1 µM | < 10 µM |
| Cc1n[nH]c(C(=O)Nc2cnc3[nH]c(-c4ccc(F)cc4)cc3c2)c1Cl [P-2023, 4-chloro-N-[2-(4-fluorophenyl)-1H-pyrrolo[2,3-b]pyridin-5-yl]-3-methyl-1H-pyrazole-5-carboxamide] | 0.0001 to 1 µM | < 10 µM |
| Cc1n[nH]c(C(=O)Nc2cnc3[nH]c(-c4ccc(F)cc4)cc3c2)c1C [P-2024, N-[2-(4-fluorophenyl)-1H-pyrrolo[2,3-b]pyridin-5-yl]-3,4-dimethyl-1H-pyrazole-5-carboxamide] | 0.0001 to 1 µM | < 10 µM |
| CC(=O)Nc1cccc(C(=O)Nc2cnc3[nH]c(-c4ccc(F)cc4)cc3c2)c1 [P-2026, 3-acetamido-N-[2-(4-fluorophenyl)-1H-pyrrolo[2,3-b]pyridin-5-yl]benzamide] | 10 to 200 µM | < 10 µM |
| O=C(Nc1cnc2[nH]c(-c3ccc(F)cc3)cc2c1)c1cccc2n[nH]cc12 [P-2027, N-[2-(4-fluorophenyl)-1H-pyrrolo[2,3-b]pyridin-5-yl]-2H-indazole-4-carboxamide] | 1 to 10 µM | < 10 µM |
| Cc1c[nH]nc1C(=O)Nc1cnc2[nH]c(-c3ccc(F)cc3)cc2c1 [P-2029, N-[2-(4-fluorophenyl)-1H-pyrrolo[2,3-b]pyridin-5-yl]-4-methyl-1H-pyrazole-3-carboxamide] | 0.0001 to 1 µM | < 10 µM |
| CCn1nccc1S(=O)(=O)Nc1cnc2[nH]c(-c3ccc(F)cc3)cc2c1 [P-2030, 2-ethyl-N-[2-(4-fluorophenyl)-1H-pyrrolo[2,3-b]pyridin-5-yl]pyrazole-3-sulfonamide] | 10 to 200 µM | < 10 µM |
| Cc1cc(C(=O)Nc2cnc3[nH]c(C4=CCN(C(=O)N5CCOCC5)CC4)cc3c2)n[nH]1 [P-2031, 5-methyl-N-[2-[1-(morpholine-4-carbonyl)-3,6-dihydro-2H-pyridin-4-yl]-1H-pyrrolo[2,3-b]pyridin-5-yl]-1H-pyrazole-3-carboxamide] | 0.0001 to 1 µM | < 10 µM |
| Cc1n[nH]c(C(=O)Nc2cnc3[nH]ccc3c2)c1C [P-2032, 3,4-dimethyl-N-(1H-pyrrolo[2,3-b]pyridin-5-yl)-1H-pyrazole-5-carboxamide] | 1 to 10 µM | < 10 µM |
| Cc1n[nH]c(C(=O)Nc2cnc3c(c2)cc(C2=CCN(C(=O)N4CCOCC4)CC2)n3S(=O)(=O)c2ccccc2)c1C [P-2033, N-[1-(benzenesulfonyl)-2-[1-(morpholine-4-carbonyl)-3,6-dihydro-2H-pyridin-4-yl]pyrrolo[2,3-b]pyridin-5-yl]-3,4-dimethyl-1H-pyrazole-5-carboxamide] | 0.0001 to 1 µM | < 10 µM |
| Cc1n[nH]c(C(=O)Nc2cnc3[nH]c(C4=CCN(C(=O)N5CCOCC5)CC4)cc3c2)c1C [P-2034, 3,4-dimethyl-N-[2-[1-(morpholine-4-carbonyl)-3,6-dihydro-2H-pyridin-4-yl]-1H-pyrrolo[2,3-b]pyridin-5-yl]-1H-pyrazole-5-carboxamide] | 0.0001 to 1 µM | < 10 µM |
| Cc1n[nH]c(C(=O)Nc2cnc3[nH]c(C4=CCN(C(=O)N5CCOCC5)CC4)cc3c2)c1Cl [P-2036, 4-chloro-3-methyl-N-[2-[1-(morpholine-4-carbonyl)-3,6-dihydro-2H-pyridin-4-yl]-1H-pyrrolo[2,3-b]pyridin-5-yl]-1H-pyrazole-5-carboxamide] | 0.0001 to 1 µM | < 10 µM |
| Cc1n[nH]nc1C(=O)Nc1cnc2[nH]c(-c3ccc(F)cc3)cc2c1 [P-2037, N-[2-(4-fluorophenyl)-1H-pyrrolo[2,3-b]pyridin-5-yl]-5-methyl-2H-triazole-4-carboxamide] | 0.0001 to 1 µM | < 10 µM |

| Structure (SMILES) | IC50 (c-kit mutant D816V) | IC50 [1] |
| --- | --- | --- |
| Cc1nn(C)cc1-c1cc2cc(NC(=O)c3[nH]nc(C)c3C)cnc2[nH]1 [P-2038, N-[2-(1,3-dimethylpyrazol-4-yl)-1H-pyrrolo[2,3-b]pyridin-5-yl]-4,5-dimethyl-1H-pyrazole-3-carboxamide] | 0.0001 to 1 µM | < 10 µM |
| Cc1[nH]nc(C(=O)Nc2cnc3[nH]c(C4=CCN(C(=O)C5CC5)CC4)cc3c2)c1Cl [P-2039, 4-chloro-N-[2-[1-(cyclopropanecarbonyl)-3,6-dihydro-2H-pyridin-4-yl]-1H-pyrrolo[2,3-b]pyridin-5-yl]-5-methyl-1H-pyrazole-3-carboxamide] | 0.0001 to 1 µM | < 10 µM |
| Cc1n[nH]c(C(=O)Nc2cnc3[nH]nc(C)c3c2)c1C [P-2040, 3,4-dimethyl-N-(3-methyl-1H-pyrazolo[3,4-b]pyridin-5-yl)-1H-pyrazole-5-carboxamide] | 0.0001 to 1 µM | < 10 µM |
| Cc1cc(C(=O)Nc2cnc3[nH]c(C4=CCN(C(=O)C5CC5)CC4)cc3c2)n[nH]1 [P-2042, N-[2-[1-(cyclopropanecarbonyl)-3,6-dihydro-2H-pyridin-4-yl]-1H-pyrrolo[2,3-b]pyridin-5-yl]-5-methyl-1H-pyrazole-3-carboxamide] | 0.0001 to 1 µM | < 10 µM |
| Cc1[nH]nc(C(=O)Nc2cnc3[nH]c(C4=CCN(C(=O)C5CC5)CC4)cc3c2)c1C [P-2043, N-[2-[1-(cyclopropanecarbonyl)-3,6-dihydro-2H-pyridin-4-yl]-1H-pyrrolo[2,3-b]pyridin-5-yl]-4,5-dimethyl-1H-pyrazole-3-carboxamide] | 0.0001 to 1 µM | < 10 µM |
| Cc1n[nH]c(C(=O)Nc2cnc(Nc3ccccc3)nc2)c1C [P-2044, N-(2-anilinopyrimidin-5-yl)-3,4-dimethyl-1H-pyrazole-5-carboxamide] | 0.0001 to 1 µM | < 10 µM |
| Cc1n[nH]c(C(=O)Nc2ccc(Nc3ccccc3)nc2)c1C [P-2045, N-(6-anilino-3-pyridyl)-3,4-dimethyl-1H-pyrazole-5-carboxamide] | 0.0001 to 1 µM | < 10 µM |
| O=C(Nc1cnc2[nH]c(-c3ccc(F)cc3)cc2c1)c1n[nH]c2ccccc12 [P-2046, N-[2-(4-fluorophenyl)-1H-pyrrolo[2,3-b]pyridin-5-yl]-1H-indazole-3-carboxamide] | 0.0001 to 1 µM | < 10 µM |
| O=C(Nc1cnc2[nH]c(-c3ccc(F)cc3)cc2c1)c1n[nH]c2c1CCCC2 [P-2047, N-[2-(4-fluorophenyl)-1H-pyrrolo[2,3-b]pyridin-5-yl]-4,5,6,7-tetrahydro-1H-indazole-3-carboxamide] | 0.0001 to 1 µM | < 10 µM |
| Cc1n[nH]c(C(=O)Nc2cnc3[nH]c(-c4cnn(C5CCNCC5)c4)cc3c2)c1C [P-2048, 3,4-dimethyl-N-[2-[1-(4-piperidyl)pyrazol-4-yl]-1H-pyrrolo[2,3-b]pyridin-5-yl]-1H-pyrazole-5-carboxamide] | 0.0001 to 1 µM | < 10 µM |
| Cc1n[nH]c(C(=O)Nc2cnc3[nH]c(Cl)cc3c2)c1C [P-2049, N-(2-chloro-1H-pyrrolo[2,3-b]pyridin-5-yl)-3,4-dimethyl-1H-pyrazole-5-carboxamide] | 0.0001 to 1 µM | < 10 µM |
| CCNS(=O)(=O)c1cccc(Nc2ncc(NC(=O)c3[nH]nc(C)c3C)cn2)c1 [P-2050, N-[2-[3-(ethylsulfamoyl)anilino]pyrimidin-5-yl]-3,4-dimethyl-1H-pyrazole-5-carboxamide] | 1 to 10 µM | < 10 µM |
| Cc1n[nH]c(C(=O)Nc2cnc(Nc3cccc(N4CCOCC4)c3)nc2)c1C [P-2051, 3,4-dimethyl-N-[2-(3-morpholinoanilino)pyrimidin-5-yl]-1H-pyrazole-5-carboxamide] | 0.0001 to 1 µM | < 10 µM |
| CCCS(=O)(=O)Nc1cccc(Nc2ncc(NC(=O)c3[nH]nc(C)c3C)cn2)c1 [P-2052, 3,4-dimethyl-N-[2-[3-(propylsulfonylamino)anilino]pyrimidin-5-yl]-1H-pyrazole-5-carboxamide] | 0.0001 to 1 µM | < 10 µM |
| Cc1n[nH]c(C(=O)Nc2cnc(Nc3cccc(NS(=O)(=O)c4ccccc4)c3)nc2)c1C [P-2053, N-[2-[3-(benzenesulfonamido)anilino]pyrimidin-5-yl]-3,4-dimethyl-1H-pyrazole-5-carboxamide] | 0.0001 to 1 µM | < 10 µM |
| CNC(=O)c1cccc(Nc2ncc(NC(=O)c3[nH]nc(C)c3C)cn2)c1 [P-2054, 3,4-dimethyl-N-[2-[3-(methylcarbamoyl)anilino]pyrimidin-5-yl]-1H-pyrazole-5-carboxamide] | 0.0001 to 1 µM | < 10 µM |
| CCOC(=O)Nc1cccc(Nc2ncc(NC(=O)c3[nH]nc(C)c3C)cn2)c1 [P-2055, ethyl N-[3-[[5-[(3,4-dimethyl-1H-pyrazole-5-carbonyl)amino]pyrimidin-2-yl]amino]phenyl]carbamate] | 0.0001 to 1 µM | < 10 µM |
